Legend:
Type in all cases: cell-based
[1] = MTT assay (cytotoxicity), LNCaP cells; conditions: human, LNCaP cells, 72 h
Procedure: (§1) MTT assays: LNCaP, 22Rv1, Du145, H1975, A549, MB231 and MCF-7 cells are maintained in RPMI 1640 supplemented with 10% FBS. Cells were seeded at a density of 6-7×10^3 cells per well in 96-well plates. After overnight incubation, cells in fresh RPMI 1640 supplemented with 10% FBS were exposed to DMSO vehicle control or test compounds at designated concentrations for 72 h. Viable cells were evaluated by MTT assays. Experiments were performed in triplicate and repeated at least twice.

[2] = MTT assay (cytotoxicity), 22Rv1 cells; conditions: human, 22Rv1 cells, 72 h
Procedure: as §1

[3] = MTT assay (cytotoxicity), DU145 cells; conditions: human, DU145 cells
Procedure: as §1

[4] = tested on: LNCaP cells; experiment: MTT assay (cytotoxicity), LNCaP cells; conditions: 72 h
Procedure: as §1

[5] = tested on: 22Rv1 cells; experiment: MTT assay (cytotoxicity), 22Rv1 cells; conditions: 72 h
Procedure: as §1

[6] = tested on: DU145 cells; experiment: MTT assay (cytotoxicity), DU145 cells; conditions: 72 h
Procedure: as §1

## O=C(NCCc1cccc(C(F)(F)F)c1)Nc1ccc([N+](=O)[O-])c(C(F)(F)F)c1 [Compound 448]
[1]; Table 2.4
  IC50 at 72 h: 1.8 µM
[2]; Table 2.4
  IC50 at 72 h: 4.5 µM
[3]; Table 2.4
  IC50 at 72 h: 7.5 µM

## O=C(N/C=C/c1cccc(C(F)(F)F)c1)Nc1ccc([N+](=O)[O-])cc1 [Compound 449]
[4]; Table 2.2
  IC50: 2.1 µM
[5]; Table 2.2
  IC50: 5.3 µM
[6]; Table 2.2
  IC50: 3.9 µM

## CC(C)(C)OC(=O)n1cc(/C=C/NC(=O)Nc2ccc([N+](=O)[O-])c(C(F)(F)F)c2)c2ccccc21 [Compound 450]
[1]; Table 2.4
  IC50 at 72 h: 1.8 µM
[2]; Table 2.4
  IC50 at 72 h: 4 µM
[3]; Table 2.4
  IC50 at 72 h: 4.9 µM

## O=C(N/C=C/c1cccc(C(F)(F)F)c1)Nc1ccccc1NC(=O)N/C=C/c1cccc(C(F)(F)F)c1 [Compound 451]
[1]; Table 5.1
  IC50 at 72 h: 2.4 µM
[2]; Table 5.1
  IC50 at 72 h: 4.4 µM
[3]; Table 5.1
  IC50 at 72 h: 5.4 µM

## CC(C)(C)OC(=O)n1cc(/C=C/NC(=O)Nc2ccc(NC(=O)N/C=C/c3cn(C(=O)OC(C)(C)C)c4ccccc34)cc2)c2ccccc21 [Compound 452]
[1]; Table 5.1
  IC50 at 72 h: > 20 µM
[2]; Table 5.1
  IC50 at 72 h: > 20 µM
[3]; Table 5.1
  IC50 at 72 h: 3.4 µM

## O=C(N/C=C/c1cccc([N+](=O)[O-])c1)Nc1ccc([N+](=O)[O-])c(C(F)(F)F)c1 [Compound 456]
[4]; Table 2.2
  IC50: 2 µM
[5]; Table 2.2
  IC50: 4.1 µM
[6]; Table 2.2
  IC50: 5.2 µM

## O=C(N/C=C/c1cccc(C(F)(F)F)c1)NCCc1cccc(C(F)(F)F)c1 [Compound 459]
[1]; Table 2.4
  IC50 at 72 h: 7.1 µM
[3]; Table 2.4
  IC50 at 72 h: > 10 µM

## Nc1ccc(NC(=O)N/C=C/c2ccc(C(F)(F)F)cc2)cc1 [Compound 462]
[4]; Table 2.2
  IC50: 3.5 µM
[5]; Table 2.2
  IC50: 6.3 µM
[6]; Table 2.2
  IC50: 3.2 µM

## N#Cc1ccc(NC(=O)N/C=C/c2cc(C(F)(F)F)cc(C(F)(F)F)c2)cc1C(F)(F)F [Compound 463]
[4]; Table 2.2
  IC50: 1.2 µM
[5]; Table 2.2
  IC50: 1 µM
[6]; Table 2.2
  IC50: 1.2 µM

## N#Cc1ccc(NC(=O)N/C=C/c2cc(C(F)(F)F)ccc2C(F)(F)F)cc1C(F)(F)F [Compound 464]
[4]; Table 2.2
  IC50: 0.4 µM
[5]; Table 2.2
  IC50: 0.7 µM
[6]; Table 2.2
  IC50: 0.4 µM

## N#Cc1ccc(NC(=O)Nc2ccc([N+](=O)[O-])c(C(F)(F)F)c2)cc1C(F)(F)F [Compound 465]
[4]; LNCaP cells, Table 4.2
  IC50: 4.1 µM
[5]; 22Rv1 cells, Table 4.2
  IC50: 5.2 µM
[6]; DU145 cells, Table 4.2
  IC50: 5.3 µM

## N#Cc1ccc(NC(=O)N/C=C/c2cc(C(F)(F)F)ccc2C(F)(F)F)cc1 [Compound 468]
[4]; Table 2.2
  IC50: 0.9 µM
[5]; Table 2.2
  IC50: 1.9 µM
[6]; Table 2.2
  IC50: 1.5 µM

## N#Cc1ccc(NC(=O)N/C=C/c2cc(C(F)(F)F)cc(C(F)(F)F)c2)cc1 [Compound 469]
[4]; Table 2.2
  IC50: 1 µM
[5]; Table 2.2
  IC50: 1.9 µM
[6]; Table 2.2
  IC50: 1.7 µM

## N#Cc1ccc(NC(=O)N/C=C/c2cc(C(F)(F)F)ccc2C(F)(F)F)cn1 [Compound 480]
[5]; Table 2.1
  IC50: 1.8 µM
[6]; Table 2.1
  IC50: 1.7 µM

## N#Cc1ccc(NC(=O)N/C=C/c2cc(C(F)(F)F)ccc2C(F)(F)F)nc1 [Compound 481]
[5]; Table 2.1
  IC50: 2.6 µM
[6]; Table 2.1
  IC50: 0.8 µM

## N#Cc1ccc(NC(=O)N/C=C/c2cc(C(F)(F)F)cc(C(F)(F)F)c2)nc1 [Compound 483]
[5]; Table 2.1
  IC50: 2.3 µM
[6]; Table 2.1
  IC50: 2 µM

## N#Cc1ccc(NC(=O)Nc2cc(C(F)(F)F)cc(C(F)(F)F)c2)cc1C(F)(F)F [Compound 494]
[4]; LNCaP cells, Table 4.2
  IC50: 0.3 µM
[5]; 22Rv1 cells, Table 4.2
  IC50: 1.6 µM
[6]; DU145 cells, Table 4.2
  IC50: 1.5 µM

## N#Cc1ccc(NC(=O)Nc2cc(C(F)(F)F)cc(C(F)(F)F)c2)cc1Cl [Compound 500]
[4]; LNCaP cells, Table 4.2
  IC50: 0.2 µM
[5]; 22Rv1 cells, Table 4.2
  IC50: 0.4 µM
[6]; DU145 cells, Table 4.2
  IC50: 1.3 µM

## N#Cc1ccc(NC(=O)Nc2ccc(C(F)(F)F)cc2)cc1Cl [Compound 502]
[4]; LNCaP cells, Table 4.2
  IC50: 1.2 µM
[5]; 22Rv1 cells, Table 4.2
  IC50: 2.2 µM
[6]; DU145 cells, Table 4.2
  IC50: 4.1 µM

## O=C(N/C=C/c1cc(C(F)(F)F)cc(C(F)(F)F)c1)Nc1cccnc1 [Compound 503]
[4]; Table 2.1
  IC50: 7.5 µM
[5]; Table 2.1
  IC50: 11.3 µM
[6]; Table 2.1
  IC50: 9.5 µM

## N#Cc1ccc(NC(=O)Nc2ccc(C(F)(F)F)cc2)cc1C(F)(F)F [Compound 509]
[4]; LNCaP cells, Table 4.2
  IC50: 0.7 µM
[5]; 22Rv1 cells, Table 4.2
  IC50: 1.6 µM
[6]; DU145 cells, Table 4.2
  IC50: 5.4 µM

## N#Cc1ccc(NC(=O)N/C=C/c2cccc(C(F)(F)F)c2)cn1 [Compound 510]
[4]; Table 2.1
  IC50: 3.3 µM
[5]; Table 2.1
  IC50: 6.6 µM
[6]; Table 2.1
  IC50: 5.7 µM

## O=C(N/C=C/c1cc(C(F)(F)F)cc(C(F)(F)F)c1)Nc1ncccc1Br [Compound 527]
[4]; Table 2.1
  IC50: 5.3 µM
[5]; Table 2.1
  IC50: 7.6 µM
[6]; Table 2.1
  IC50: 6.8 µM

## O=C(N/C=C/c1cc(C(F)(F)F)cc(C(F)(F)F)c1)Nc1ncccn1 [Compound 531]
[4]; Table 2.1
  IC50: < 1 µM
[6]; Table 2.1
  IC50: < 1 µM

## O=C(N/C=C/c1cc(C(F)(F)F)cc(C(F)(F)F)c1)Nc1cnccc1Cl [Compound 533]
[4]; Table 2.1
  IC50: 2 µM
[5]; Table 2.1
  IC50: 10.9 µM
[6]; Table 2.1
  IC50: 6.5 µM

## O=C(N/C=C/c1cc(C(F)(F)F)cc(C(F)(F)F)c1)Nc1cncc(F)c1 [Compound 535]
[4]; Table 2.1
  IC50: 2.6 µM
[5]; Table 2.1
  IC50: 3.1 µM
[6]; Table 2.1
  IC50: 3 µM

## O=C(N/C=C/c1cc(C(F)(F)F)cc(C(F)(F)F)c1)Nc1nccc(C(F)(F)F)n1 [Compound 538]
[4]; Table 2.1
  IC50: < 1 µM
[6]; Table 2.1
  IC50: 1.2 µM
